Test results as given in ChEMBL document CHEMBL1201862, “PubChem BioAssay data set” (2004).
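Interpolation was linear, between the two tested concentrations surrounding the appropriate level; five concentrations were tested over 48 hours in 96-well plates. At the GI50, growth is halved.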 Active and inactive are the calls of the source. Rule as the data show it: active = GI50 up to about 1.1 µM and inactive = higher.

Assays:
Assay in all cases: NCI-60 cell line screen, 48 h
SF-295 = system: SF-295
SF-539 = system: SF-539
M19-MEL = system: M19-MEL
UACC-62 = system: UACC-62
NCI-H23 = system: NCI-H23
KM12 = system: KM12
EKVX = system: EKVX
SNB-75 = system: SNB-75
SNB-19 = system: SNB-19
HL-60 = system: HL-60
NCI-H226 = system: NCI-H226
A549 = system: A549
SN12C = system: SN12C
U-251 = system: U-251
M14 = system: M14
COLO 205 = system: COLO 205
SF-268 = system: SF-268
SK-MEL-28 = system: SK-MEL-28

Measured: GI50

Nc1nc(Cl)cc(NCCCCCCNc2cc(Cl)nc(N)n2)n1
inactive: SF-295 28.1 µM | SF-539 > 100 µM | M19-MEL > 100 µM | UACC-62 12 µM | NCI-H23 54.5 µM | KM12 > 100 µM | EKVX > 100 µM | SNB-75 > 100 µM | SNB-19 > 100 µM | HL-60 15.2 µM | NCI-H226 25.8 µM | A549 60.7 µM | SN12C > 100 µM | U-251 > 100 µM | M14 > 100 µM | COLO 205 > 100 µM

O=C1[C@@H]2C(c3ccc(Cl)cc3Cl)=NO[C@@H]2C(=O)N1c1ccc(Cc2ccc(N3C(=O)[C@H]4C(c5ccc(Cl)cc5Cl)=NO[C@H]4C3=O)cc2)cc1
inactive: SF-295 74 µM | SF-539 52.7 µM | SF-268 > 100 µM | SK-MEL-28 67.1 µM | M19-MEL > 100 µM | UACC-62 71.6 µM | NCI-H23 > 100 µM | KM12 > 100 µM | EKVX > 100 µM | SNB-75 > 100 µM | HL-60 11.4 µM | NCI-H226 > 100 µM | A549 > 100 µM | SN12C 54 µM | M14 37.7 µM | COLO 205 50.9 µM

CCCCOC(=O)CNC(=O)OCCCCC#CC#CCCCCOC(=O)NCC(=O)OCCCC
inactive: SF-295 > 100 µM | SF-539 > 100 µM | SF-268 > 100 µM | M19-MEL > 100 µM | UACC-62 > 100 µM | NCI-H23 > 100 µM | KM12 > 100 µM | EKVX > 100 µM | SNB-75 > 100 µM | SNB-19 > 100 µM | HL-60 > 100 µM | NCI-H226 > 100 µM | A549 > 100 µM | SN12C > 100 µM | U-251 > 100 µM | M14 > 100 µM | COLO 205 > 100 µM

CCOc1ccccc1NC(=O)CCC(=O)OC
inactive: SF-295 > 100 µM | SF-268 > 100 µM | SK-MEL-28 > 100 µM | M19-MEL > 100 µM | UACC-62 > 100 µM | NCI-H23 > 100 µM | KM12 > 100 µM | EKVX > 100 µM | SNB-75 > 100 µM | SNB-19 > 100 µM | HL-60 > 51.8 µM | NCI-H226 > 100 µM | A549 > 100 µM | SN12C > 100 µM | U-251 > 49.9 µM | M14 > 100 µM | COLO 205 > 58.2 µM
